# In patent publication US9259438B2, “Methods for in vitro maturation of ovarian follicles” (priority 2008, dated 2016):
# B1: Kit ligand (KL): Kit ligand, activates the PI3K pathway in growing oocytes through its oocyte surface receptor Kit (protein, UniProt P20826 26-190, looked up)
# Soluble KIT ligand: KEICGNPVTDNVKDITKLVANLPNDYMITLNYVAGMDVLPSHCWLRDMVIQLSLSLTTLLDKFSNISEGLSNYSIIDKLGKIVDDLVLCMEENAPKNIKESPKRPETRSFTPEEFFSIFNRSIDAFKDFMVASDTSDCVLSSTLGPEKDSRVSVTKPFMLPPVAA
# Legend:
# [1] = tested on: primordial follicles in cultured mouse ovaries; assay: Culture of postnatal day 4 mouse ovaries with PTEN inhibitor, morphological analysis; format: cell-based; conditions: postnatal day 4 mouse ovaries cultured for 8 days, 10 μM inhibitor vs. carrier
# Protocol: Postnatal day 4 mouse ovaries containing primordial follicles were cultured for 8 days with carrier (A) or PTEN inhibitor bpv (Hopic) (B).
# Postnatal day 4 mouse ovaries were removed aseptically and the whole ovary was cultured in a Cell Strainer (40 μm pore size) (BD Biosciences, Stockholm, Sweden) in 1 ml alpha-MEM medium (Gibco-BRL) supplemented with 28 mM ascorbic acid and 0.3% (w/v) BSA, with or without 10 μM of the PTEN inhibitor bpV-HOpic (Dipotassium Bisperoxo(5-hydroxypyridine-2-carboxyl)oxovanadate (V), K2[VO(O2)2C6H4NO3]). The cultured ovaries were incubated in a humidified incubator (5% CO2, 37° C.) with one-third of the medium exchanged for fresh medium every day for the duration of the culture period. For fixation, the ovaries were washed once in PBS and fixed overnight in 4% paraformaldehyde, and embedded for morphological analysis.
# Akt = assay: Western blot of Akt activation (p-Akt, serine 473) in oocytes after Kit ligand treatment; format: cell-based, mouse; conditions: 100 ng/ml, 2 min; PD12-14 Pten loxP/loxP; GCre+ oocytes vs. control oocytes
# Protocol: Oocytes were isolated from ovaries of Pten^loxP/loxP; GCre+ and Pten^loxP/loxP mice at PD5 and PD12-14, and western blots were performed (A) Levels of p-Akt (serine 473) and total Akt in PD12-14 Pten^loxP/loxP; GCre+ and Pten^loxP/loxP oocytes. (B) Activation of Akt (p-Akt, serine 473) by Kit ligand (KL) treatment (100 ng/ml, 2 min) in PD12-14 Pten^loxP/loxP; GCre+ and Pten^loxP/loxP oocytes. Levels of Akt were used as internal controls. (C) Signaling studies in Pten^loxP/loxP; GCre+ and Pten^loxP/loxP oocytes at PD5 and PD12-14, showing levels of p-Akt (serine 473), rpS6, p-rpS6 (serine 235/6), p-mTOR (serine 2448), p-TSC2 (threonine 1462), and p-S6K (threonine 389). Levels of total Akt, mTOR, TSC2, S6K, and β-actin were used as internal controls. All experiments were repeated at least 3 times. For isolation of PD5 oocytes for western blot, 10-15 Pten^loxP/loxP; GCre+ or Pten^loxP/loxP mice were used for each lane. For isolation of PD12-14 oocytes, 3-5 Pten^loxP/loxP^P; GCre+ mice or 6-10 Pten^loxP/loxP mice were used per lane. In each lane, 30-40 μg of protein sample was loaded.
# Thus, activation of the pool of primordial follicles ends up with follicle depletion. This causes POF (premature ovarian failure) in Pten^loxP/loxP; GCr+ mice. The phenotype observed in these mice resembles that of human POF (Beck-Peccoz and Persani, Orphanet. J. Rare. Dis. 2006, 1: 9). […]
Molecule,proliferation and differentiation of flattened pre-granulosa cells into cuboidal granulosa cells [1],survival rate of follicles in the cultured ovaries [1],"activation of Akt (p-Akt, serine 473) (Akt)"
Dipotassium Bisperoxo(5-hydroxypyridine-2-carboxyl)oxovanadate (V) [bpV-HOpic],stimulates the proliferation and differentiation of flattened pre-granulosa cells,enhances the survival rate of follicles,–
B1,–,–,activated Akt to a greater extent
